Test results taken from US12673946B2, “Pyrimidin-4(3H)-one derivatives as TRPV4 antagonists” (RaQualia Pharma Inc., priority 2020, dated 2026).

Molecular target: T1, human TRPV4 (Homo sapiens, UniProt Q9HBA0)
T1 construct: host or cells: tetracycline-inducible Flp-In T-REx 293 cells
Test: Hypotonicity-induced Ca2+ influx (Fluo-4, FDSS)
Format: cell-based
Summary of the method: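 Flp-In T-REx 293 cells with tetracycline-induced human TRPV4, loaded with Fluo-4 for 60 min at 25 °C. Compound added 5 min before hypotonic mannitol/CaCl2 solution. Ca2+ signal recorded for 4.5 min on FDSS.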

[1] = Flp-In T-REx 293 cells expressing human TRPV4, examples listed under heading 'Human IC50<50 nM'
[2] = Flp-In T-REx 293 cells stably expressing human TRPV4, compounds listed by potency bin (<10 nM Tables 96-1/96-2, <3 nM Table 97)

T1 sequence (Q9HBA0 whole entry): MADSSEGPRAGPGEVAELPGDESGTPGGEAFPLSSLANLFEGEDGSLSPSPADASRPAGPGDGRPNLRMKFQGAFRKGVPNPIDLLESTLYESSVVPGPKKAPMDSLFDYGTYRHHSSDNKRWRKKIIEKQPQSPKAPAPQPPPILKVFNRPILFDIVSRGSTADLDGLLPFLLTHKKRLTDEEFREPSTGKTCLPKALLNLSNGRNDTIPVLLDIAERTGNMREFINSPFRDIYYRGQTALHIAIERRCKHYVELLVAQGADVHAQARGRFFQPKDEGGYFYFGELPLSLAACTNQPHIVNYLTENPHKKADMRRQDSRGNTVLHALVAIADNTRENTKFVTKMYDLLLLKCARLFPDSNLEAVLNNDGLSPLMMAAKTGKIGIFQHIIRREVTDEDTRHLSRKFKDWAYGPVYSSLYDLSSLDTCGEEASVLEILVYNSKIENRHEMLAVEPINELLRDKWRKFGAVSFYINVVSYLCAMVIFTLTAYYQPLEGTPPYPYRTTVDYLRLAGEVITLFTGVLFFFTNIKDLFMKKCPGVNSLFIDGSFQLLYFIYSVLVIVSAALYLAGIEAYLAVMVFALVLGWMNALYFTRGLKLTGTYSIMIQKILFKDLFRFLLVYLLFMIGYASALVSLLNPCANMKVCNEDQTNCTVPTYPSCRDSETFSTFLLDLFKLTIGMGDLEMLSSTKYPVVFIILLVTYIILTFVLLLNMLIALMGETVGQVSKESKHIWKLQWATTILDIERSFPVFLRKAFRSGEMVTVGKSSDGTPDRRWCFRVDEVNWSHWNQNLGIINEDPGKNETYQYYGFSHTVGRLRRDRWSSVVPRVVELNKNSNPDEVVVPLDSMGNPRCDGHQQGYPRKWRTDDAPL

IC50 [1] | IC50 [2] | Structure (SMILES)
< 50 nM | < 10 nM | O=C([C@H](O)c1cccc(-c2cccc(Cl)c2)c1)N1CCCc2nc(C3(c4cccc(Cl)c4)CC3)[nH]c(=O)c2C1 [50-14]
< 50 nM | < 10 nM | O=C([C@H](O)c1cccc(-c2cccc(C(F)(F)F)c2)c1)N1CCCc2nc(C3(c4cc(C5CCCCC5)cs4)CC3)[nH]c(=O)c2C1 [54-9]
< 50 nM |  | CCOc1ccc(-c2cccc(C(O)C(=O)N3CCc4nc(C5(c6ccccc6)CC5)[nH]c(=O)c4C3)c2)cc1 (centres unmarked) [44-37]
< 50 nM | < 10 nM | O=C([C@H](O)c1cccc(-c2ccc(Cl)c(OC(F)(F)F)c2)c1)N1CCc2nc(C3(c4ccccc4)CC3)[nH]c(=O)c2C1 [44-97]
< 50 nM |  | O=C(C(O)c1cccc(-c2ccc(F)c(F)c2)c1)N1CCc2nc(C3(c4ccccc4)CC3)[nH]c(=O)c2C1 (centres unmarked) [44-49]
< 50 nM | < 10 nM | O=C(N1CCCc2nc(C3(c4ccccc4)CC3)[nH]c(=O)c2C1)C(F)(F)c1cccc(-c2cccc(C(F)(F)F)c2)c1 [58-1]
< 50 nM | < 10 nM | O=C([C@H](O)c1cccc(-c2cc(Cl)cc(OC(F)(F)F)c2)c1)N1CCc2nc(C3(c4cccc(Cl)c4)CC3)[nH]c(=O)c2C1 [45-11]
< 50 nM | < 3 nM | O=C([C@H](O)c1cccc(-c2cccc(OC(F)(F)F)c2)c1)N1CCc2nc(C3(c4ccccc4)CC3)[nH]c(=O)c2C1 [44-72]
< 50 nM |  | O=C([C@H](O)c1cccc(-c2cncc(C(F)(F)F)c2)c1)N1CCc2nc(C3(c4ccccc4)CC3)[nH]c(=O)c2C1 [44-92]
< 50 nM | < 3 nM | O=C(Cc1cccc(-c2cccc(OC(F)(F)F)c2)c1)N1CCCc2nc(C3(c4ccccc4)CC3)[nH]c(=O)c2C1 [57-2]
< 50 nM | < 3 nM | O=C(C(O)c1cccc(-c2cccc(C(F)(F)F)c2)c1)N1CCCc2nc(C3(c4cncc(-c5ccccc5)c4)CC3)[nH]c(=O)c2C1 (centres unmarked) [56-2]
< 50 nM | < 10 nM | O=C(C(O)c1cccc(-c2cnc3ccccc3c2)c1)N1CCc2nc(C3(c4ccccc4)CC3)[nH]c(=O)c2C1 (centres unmarked) [44-12]
< 50 nM | < 10 nM | Cc1cc(C)cc(-c2cccc([C@@H](O)C(=O)N3CCCc4nc(C5(c6ccccc6)CC5)[nH]c(=O)c4C3)c2)c1 [49-49]
< 50 nM | < 10 nM | O=C(C(O)c1cccc(-c2cc(F)cc(Cl)c2)c1)N1CCCc2nc(C3(c4ccccc4)CC3)[nH]c(=O)c2C1 (centres unmarked) [49-4]
< 50 nM |  | CC(=O)c1cccc(C2(c3nc4c(c(=O)[nH]3)CN(C(=O)[C@H](O)c3cccc(C(F)(F)F)c3)CCC4)CC2)c1 [60-1, (R)-2-(1-(3-acetylphenyl)cyclopropyl)-6-(2-hydroxy-2-(3-(trifluoromethyl)phenyl)acetyl)-3,5,6,7,8,9-hexahydro-4H-pyrimido[5,4-c]azepin-4-one]
< 50 nM | < 10 nM | O=C([C@H](O)c1cccc(-c2ccc(Cl)c(C(F)(F)F)c2)c1)N1CCCc2nc(C3(c4ccccc4)CC3)[nH]c(=O)c2C1 [49-37]
< 50 nM | < 10 nM | O=C([C@H](O)c1cccc(-c2ccc(Cl)c(C(F)(F)F)c2)c1)N1CCc2nc(C3(c4cccc(Cl)c4)CC3)[nH]c(=O)c2C1 [45-3]
< 50 nM | < 10 nM | O=C([C@H](O)c1cccc(-c2cccc(Cl)c2)c1)N1CCCc2nc(C3(c4cc(C5CCCCC5)cs4)CC3)[nH]c(=O)c2C1 [54-10]
< 50 nM | < 10 nM | CC(C)c1cncc(C2(c3nc4c(c(=O)[nH]3)CN(C(=O)[C@H](O)c3cccc(-c5cccc(OC(F)(F)F)c5)c3)CCC4)CC2)c1 [55-4]
< 50 nM | < 10 nM | O=C([C@H](O)c1cccc(-c2cccc(C(F)(F)F)c2)c1)N1CCCc2nc(C3(c4cccc(C5CCCCC5)c4)CC3)[nH]c(=O)c2C1 [52-2]

More lines, now with the values behind:

Structure (SMILES) | IC50 [1] | IC50 [2]
Cc1ccc(-c2cccc(C3(c4nc5c(c(=O)[nH]4)CN(C(=O)[C@H](O)c4cccc(C(F)(F)F)c4)CCC5)CC3)c2)cc1 [42-57] | < 50 nM | < 10 nM
N#Cc1cc(Cl)cc(-c2cccc(CC(=O)N3CCCc4nc(C5(c6ccccc6)CC5)[nH]c(=O)c4C3)c2)c1 [17-138] | < 50 nM | < 10 nM
CC(C)(C)c1cccc(C(O)C(=O)N2CCCc3nc(C4(c5cccc(F)c5)CC4)[nH]c(=O)c3C2)c1 (centres unmarked) [17-21] | < 50 nM | < 10 nM
O=C([C@H](O)c1cccc(C(F)(F)F)c1)N1CCCc2nc(C3(c4cccc(C5CCN(CC(F)(F)F)CC5)c4)CC3)[nH]c(=O)c2C1 [31-1] | < 50 nM | < 3 nM
O=C([C@H](O)c1cccc(Cl)c1)N1CCc2nc(C3(c4cccc(-c5cccnc5)c4)CC3)[nH]c(=O)c2C1 [34-1] | < 50 nM | 
O=C([C@H](O)c1cccc(C(F)(F)F)c1)N1CCc2nc(C3(c4cccc(-c5cccnc5)c4)CC3)[nH]c(=O)c2C1 [37-2] | < 50 nM | < 10 nM
CC(C)c1cccc(C(O)C(=O)N2CCc3nc(C4(c5cccc(Cl)c5)CC4)[nH]c(=O)c3C2)c1 (centres unmarked) [14-16] | < 50 nM | 
N#Cc1ccc(-c2cccc(C3(c4nc5c(c(=O)[nH]4)CN(C(=O)[C@H](O)c4cccc(C(F)(F)F)c4)CCC5)CC3)c2)cc1 [42-65] | < 50 nM | < 10 nM
CNc1cc(-c2cccc(C3(c4nc5c(c(=O)[nH]4)CN(C(=O)[C@H](O)c4cccc(C(F)(F)F)c4)CCC5)CC3)c2)ccn1 [42-32] | < 50 nM | < 10 nM
O=C([C@H](O)c1cccc(C(F)(F)F)c1)N1CCCc2nc(C3(c4cc(-c5cnsc5)cs4)CC3)[nH]c(=O)c2C1 [41-3] | < 50 nM | < 10 nM
O=C([C@H](O)c1cccc(Cl)c1)N1CCCc2nc(C3(c4cc(C5CCCC5)cs4)CC3)[nH]c(=O)c2C1 [18-23] | < 50 nM | < 3 nM
O=C([C@H](O)c1cccc(C(F)(F)F)c1)N1CCCc2nc(C3(c4cccc(C5CCC(F)(F)CC5)c4)CC3)[nH]c(=O)c2C1 [31-2] | < 50 nM | < 3 nM
O=C(C(O)c1ccnc(N2CCCCCC2)c1)N1CCc2nc(C3(c4ccccc4)CC3)[nH]c(=O)c2C1 (centres unmarked) [11-3] | < 50 nM | 
O=C([C@H](O)c1cccc(C(F)(F)F)c1)N1CCCc2nc(C3(c4cc(CCC5COC5)cs4)CC3)[nH]c(=O)c2C1 [30-11] | < 50 nM | < 10 nM
O=C(Cc1cccc(-c2coc3ccccc23)c1)N1CCCc2nc(C3(c4cccc(Cl)c4)CC3)[nH]c(=O)c2C1 [17-118] | < 50 nM | < 10 nM
C=C(C)c1cccc(C2(c3nc4c(c(=O)[nH]3)CN(C(=O)[C@H](O)c3cccc(Cl)c3)CCC4)CC2)c1 [40-4, (R)-6-(2-(3-chlorophenyl)-2-hydroxyacetyl)-2-(1-(3-(prop-1-en-2-yl)phenyl)cyclopropyl)-3,5,6,7,8,9-hexahydro-4H-pyrimido[5,4-c]azepin-4-one] | < 50 nM | < 3 nM
O=C(C(O)c1ccccc1Oc1ccccc1)N1CCCc2nc(C3(c4cccc(Cl)c4)CC3)[nH]c(=O)c2C1 (centres unmarked) [17-22] | < 50 nM | < 10 nM

Structure (SMILES) | IC50 [1] | IC50 [2]
CC(C)c1csc(C2(c3nc4c(c(=O)[nH]3)CN(C(=O)Cc3cccc(-c5cccc(Cl)c5)c3)CCC4)CC2)c1 [18-30] | < 50 nM | < 10 nM
O=C([C@H](O)c1cccc(C(F)(F)F)c1)N1CCCc2nc(C3(c4cc(-c5cccnc5)cs4)CC3)[nH]c(=O)c2C1 [41-2] | < 50 nM | 
O=C([C@H](O)c1cccc(C(F)(F)F)c1)N1CCc2nc(C3(c4cccc(-c5cnsc5)c4)CC3)[nH]c(=O)c2C1 [37-3] | < 50 nM | < 3 nM
N#Cc1ccc(-c2cccc(CC(=O)N3CCCc4nc(C5(c6cccc(Cl)c6)CC5)[nH]c(=O)c4C3)c2)cc1 [17-126] | < 50 nM | < 10 nM
O=C(C(O)c1cccc(Cl)c1F)N1CCc2nc(C3(c4cccc(Cl)c4)CC3)[nH]c(=O)c2C1 (centres unmarked) [14-28] | < 50 nM | 
O=C(C(O)c1cccc(Cl)c1F)N1CCCc2nc(C3(c4cccs4)CC3)[nH]c(=O)c2C1 (centres unmarked) [18-10] | < 50 nM | 
O=C(N1CCCc2nc(C3(c4cccs4)CC3)[nH]c(=O)c2C1)C(F)(F)c1cccc(C(F)(F)F)c1 [21-1] | < 50 nM | < 3 nM
O=C([C@H](O)c1cccc(C(F)(F)F)c1)N1CCc2nc(C3(c4cncc(C5CCCCC5)c4)CC3)[nH]c(=O)c2C1 [28-2] | < 50 nM | < 10 nM
O=C([C@H](O)c1cccc(Cl)c1)N1CCCc2nc(C3(c4cccc(-c5cnsc5)c4)CC3)[nH]c(=O)c2C1 [40-2] | < 50 nM | < 3 nM
O=C([C@H](O)c1cccc(Cl)c1)N1CCc2nc(C3(c4cccc(C5CCCCC5)c4)CC3)[nH]c(=O)c2C1 [14-1] | < 50 nM | < 3 nM
CCc1csc(C2(c3nc4c(c(=O)[nH]3)CN(C(=O)[C@H](O)c3cccc(C(F)(F)F)c3)CCC4)CC2)c1 [30-2] | < 50 nM | < 3 nM
CN(C)C(=O)c1cccc(-c2cccc(C3(c4nc5c(c(=O)[nH]4)CN(C(=O)[C@H](O)c4cccc(C(F)(F)F)c4)CCC5)CC3)c2)c1 [42-31] | < 50 nM | < 10 nM
O=C(Cc1ccccc1)N1CCN(c2ccc(-c3cccc(C4(c5nc6c(c(=O)[nH]5)CN(C(=O)[C@H](O)c5cccc(C(F)(F)F)c5)CCC6)CC4)c3)cn2)CC1 [42-86] | < 50 nM | < 10 nM
CC(C)c1cc(C2(c3nc4c(c(=O)[nH]3)CN(C(=O)[C@H](O)c3cccc(C(F)(F)F)c3)CCC4)CC2)ccn1 [32-1] | < 50 nM | < 10 nM
O=C([C@H](O)c1cccc(Br)c1)N1CCCc2nc(C3(c4cccc(-c5csc6ccccc56)c4)CC3)[nH]c(=O)c2C1 [17-124] | < 50 nM | < 10 nM
Cn1ncc2c(-c3cccc(C4(c5nc6c(c(=O)[nH]5)CN(C(=O)[C@H](O)c5cccc(C(F)(F)F)c5)CCC6)CC4)c3)cccc21 [42-24] | < 50 nM | < 10 nM
CC(C)c1csc(C2(c3nc4c(c(=O)[nH]3)CN(C(=O)C(O)c3cccc(-c5cccc(C(F)(F)F)c5)c3)CCC4)CC2)c1 (centres unmarked) [18-21] | < 50 nM | < 10 nM
